In patent US20240142474A1, “Opsins as Chemosensory Receptors and Related Methods” (The Regents of the University of California, priority 2021, published 2024):
Entries after “also recorded” stand apart in the source; their conditions may differ.

Key:
[1] = target: T1, OPN3 (Mus musculus, UniProt Q9WUK7); assay: TANGO assay (beta-arrestin recruitment, luciferase reporter) in HTLA cells, OPN3; type: cell-based; details: 4 hours
T1 construct: expressed in transfected cells; host or cells: HTLA cells (HEK293 line with tTA-dependent luciferase reporter and beta-arrestin2-TEV fusion)
T1 sequence (Q9WUK7 whole entry, the tested form may be a part): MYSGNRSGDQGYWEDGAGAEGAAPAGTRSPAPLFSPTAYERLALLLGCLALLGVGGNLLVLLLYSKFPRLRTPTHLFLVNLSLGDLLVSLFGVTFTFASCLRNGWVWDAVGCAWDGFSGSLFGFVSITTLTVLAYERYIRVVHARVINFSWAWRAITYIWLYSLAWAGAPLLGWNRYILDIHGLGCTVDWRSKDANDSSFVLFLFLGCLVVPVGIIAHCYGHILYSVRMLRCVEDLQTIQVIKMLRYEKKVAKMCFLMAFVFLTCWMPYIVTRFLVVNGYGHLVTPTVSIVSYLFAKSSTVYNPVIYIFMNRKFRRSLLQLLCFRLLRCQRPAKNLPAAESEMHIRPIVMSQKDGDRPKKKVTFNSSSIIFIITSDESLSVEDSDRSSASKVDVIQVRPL
Source text: (§1) For example, in one implementation the chemosensory opsin activation detection element comprises a TANGO assay (Transcriptional Activation Following Arrestin Translocation), as known in the art, for example, as described by Kroeze et al., 2015. PRESTO-Tango as an open-source resource for interrogation the druggable human GPCRome. Nat Struct Mol Biol 22, 362-369. In the TANGO systems of the invention, a cell is engineered to express a chemosensory opsin in the form of a fusion protein, wherein the opsin fusion protein comprises an optional membrane trafficking signal (e.g. HA), an optional FLAG tag or like epitope to facilitate detection, and a transcriptional activator which induces the expression of a reporter gene, such as luciferase, wherein the transcriptional activator is joined to an intracellular portion of the opsin, for example, the […], by a cleavage sequence. The cells of the TANGO system are further engineered to express a second fusion protein comprising a beta-arrestin fused to a protease, for example, a TEV protease, wherein the protease is capable of cleaving the fusion protein at the cleavage site. The cells of the TANGO system are further engineered to express a reporter protein, e.g. luciferase, under the control of a transcriptional activator, for example, tetracycline-controlled transactivaor (tTA). Ligand binding to the opsin deployed in the TANGO system triggers a conformational change in the opsin that recruits the beta arrestin-protease fusion protein to the opsin, where proximity of the protease induces cleavage of the transcriptional activator, which trafficks to the nucleus and induces the expression of the reporter gene. The TANGO system advantageously allows direct quantification of opsin activation, independent of g protein activity.
(§2) Human transcriptomics data was mined to identify putative taste receptor proteins. […] However, the role of these opsins in taste perception has not been previously explored. TANGO detection elements employing each of these opsins, in both human and mouse isoforms, were created in HTLA cells (a HEK293 cell line stably expressing a tTA-dependent luciferase reporter and a β-arrestin2-TEV fusion gene), based on protocols in Kroeze et al., 2015. PRESTO-Tango as an open-source resource for interrogation of the druggable human GPCRome. Nat Struct Mol Biol 22, 362-369.
(§3) In the TANGO assay, the mouse opsin coding sequence with an N-terminal FLAG tag was synthesized. The construct was cloned into a TANGO vector (Addgene, Waterton MA) at the ClaI site (FLAG::opsin). The HTLA cells were transfected in a 6-well format with LIPOFECTAMINE 2000™ (Thermo Fisher Scientific, Inc, Waltham MA, USA) according to the manufacturer's instructions. 6-8 hours post transfection cells weret split 1:3 and the media was switched to DMEM+ 2.5% fetal bovine serum (Thermo Fisher Scientific Inc., Waltham MA, USA). Cells were allowed to grow for 48 hours before splitting the cells onto poly-L-lysine-coated 96-well clear, flat bottom white polystyrene plates in serum-free media. The next day, chemical solutions diluted in TANGO assay buffer (20 mM HEPES, 1× HBSS, pH 7.40) were added to the cells. After 4 hours, the medium and drug solutions were removed and replaced with […] per well of BRIGHTGLO™ reagent (Promega Corporation, Madison WI) diluted 20-fold with TANGO assay buffer. Plates were incubated for 20 minutes at room temperature in the dark before measuring luminescence with a plate reader (Molecular Devices, iD3). The normalized response was calculated using following formula: RLU (relative luminescence units)=test compound RLU−average vehicle control RLU.

[2] = target: T2, OPN3 (Homo sapiens, UniProt Q9H1Y3); assay: Calcium flux GPCR activation assay with Fluo-8 dye, opsin-expressing HEK293T cells, OPN3; type: cell-based; details: Fluo-8 calcium flux, data not shown
T2 construct: expressed in transfected cells; host or cells: HEK293T
T2 sequence (Q9H1Y3 whole entry): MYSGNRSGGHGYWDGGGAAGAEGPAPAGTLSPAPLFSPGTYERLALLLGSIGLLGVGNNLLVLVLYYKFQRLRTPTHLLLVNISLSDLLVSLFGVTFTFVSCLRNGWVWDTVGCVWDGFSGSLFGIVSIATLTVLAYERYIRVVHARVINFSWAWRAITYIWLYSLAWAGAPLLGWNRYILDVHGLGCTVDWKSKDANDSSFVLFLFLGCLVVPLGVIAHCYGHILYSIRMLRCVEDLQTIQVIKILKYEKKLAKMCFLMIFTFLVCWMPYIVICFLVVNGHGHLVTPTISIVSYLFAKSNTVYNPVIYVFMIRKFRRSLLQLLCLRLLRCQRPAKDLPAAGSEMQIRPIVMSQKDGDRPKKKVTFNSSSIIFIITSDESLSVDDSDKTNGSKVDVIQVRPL
Description: (§4) These foregoing TANTO results were further confirmed using a second, a calcium flux GPCR activation assay employing Fluo-8 dye, as follows. For this intracellular Ca^2+ measurement, opsin-expressing HEK293T cells were seeded onto 96-well plates (4×10^4 cells per well) in 100 μl of culture medium with reduced serum contents (0.5% of FBS) per well and incubated overnight under standard culture conditions. [Ca2+]i level was assessed the next day after stimulation with bitter compounds used at a different concentration with the SCREEN QUEST Fluo-8 No Wash Calcium Assay Kit (AAT Bioquest, Inc., Sunnyvale, CA, USA) according to the supplier's protocol. Calcium flux was monitored simultaneously by the change in fluorescence (Ex/Em=490/520 nm) following stimulation and with respect to the background fluorescence. [Ca^2+]i was monitored for a period of three minutes, starting before the addition of compounds to the wells and continuing during measurement of the fluorescent signal following cells' stimulation. The obtained fluorescence reads were normalized to the results obtained after stimulation of the cells with the compound solvent.

[3] = test system: OPN3 knockout mice; assay: Mouse brief-access taste assay (lickometer), OPN3 knockout mice compared to wild type; type: in vivo; details: water restricted
Description: Knockout mice were obtained for OPN1SW and OPN3. Two independent OPN3 knockout mice lines were tested for reaction to naringin by a mouse taste preference assay. A Lickometer device (MS-160, Di Log Instruments, Inc.,Tallahassee, FL, USA) was used to train mice and then measure their licking responses to different tastants in brief-access trials. On a given trial, each sipper tube was filled with a solution and made available to a mouse via a small port that opened to a metal/plexiglass chamber housing the animal. The mouse chamber of the lickometer was modified for these studies by adding a plexiglass barrier that restricted the free movement of animals to an approximate 10 by 15 cm area facing the fluid access port. A computer running software that communicated with the lickometer recorded tongue contacts with the metal tip of the sipper tube during licking and the time intervals (precision=1 ms) between consecutive licks (inter-lick intervals). The amount of time that the sipper tube was available through the access port could be programmed and was controlled by the opening of a normally closed, computer-actuated shutter. This feature facilitated presentation of solutions to a mouse for only a few seconds to support measurements of brief-access licking behavior. By indexing initial licking responses to stimuli over short periods, brief-access procedures intend to focus on oral sensory influences and avoid any post-ingestive effect. Groups of three to four mice were run in these studies at one time. Groups always included equal numbers of mutant and wild-type mice to control for temporal factors.
Training. Mice were restricted from drinking water for 20-22 hours prior to the onset of training. During training, experimentally naive mice learned to receive fluid in the lickometer over a 3-day period. On the first and second day of training, mice were given 30 minutes free access to a single sipper tube of water to familiarize them with accessing fluid in the lickometer device. Each 30 minute period began when the mouse made its first lick on the sipper tube; mice were allowed 30 minutes to make their first lick. On the third day of training, mice were presented with 10 second presentations (i.e., trials) of water to familiarize them with receiving and consuming fluid under a brief-access procedure in the lickometer. On each trial, the shutter that blocked access to the sipper tube was opened and mice were given 10 seconds to lick, and lick data were recorded by the lickometer computer. […]
Testing. […] For studies, individual Opn3KO, Opn1swKO, Opn4KO, Opn5KO and wild-type mice were evaluated for brief-access licking responses with different agonists. […]

[4] = test system: TRPM5 knockout mice; assay: Mouse brief-access taste assay (lickometer), TRPM5 knockout mice compared to wild type; type: in vivo; details: TRPM5 knockout (taste blind) mice, water restricted
[5] = target: T3, OPN1SW (Mus musculus, UniProt P51491); assay: TANGO assay (beta-arrestin recruitment, luciferase reporter) in HTLA cells, OPN1SW; type: cell-based; details: 4 hours
T3 construct: expressed in transfected cells; host or cells: HTLA cells (HEK293 line with tTA-dependent luciferase reporter and beta-arrestin2-TEV fusion)
T3 sequence (P51491 1-346): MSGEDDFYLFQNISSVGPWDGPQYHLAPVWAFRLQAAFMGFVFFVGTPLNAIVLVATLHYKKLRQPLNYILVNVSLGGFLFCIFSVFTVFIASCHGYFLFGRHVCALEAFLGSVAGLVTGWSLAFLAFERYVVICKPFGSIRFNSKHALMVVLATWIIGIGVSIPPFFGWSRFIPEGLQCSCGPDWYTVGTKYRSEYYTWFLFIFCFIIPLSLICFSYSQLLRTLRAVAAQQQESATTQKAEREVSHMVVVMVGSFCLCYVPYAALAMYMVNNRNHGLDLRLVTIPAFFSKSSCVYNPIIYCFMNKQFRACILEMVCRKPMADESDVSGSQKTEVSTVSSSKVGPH
Source text: as §1, §2, §3

[6] = target: T4, OPN1SW (Homo sapiens, UniProt P03999); assay: Calcium flux GPCR activation assay with Fluo-8 dye, opsin-expressing HEK293T cells, OPN1SW; type: cell-based; details: Fluo-8 calcium flux, data not shown
T4 construct: expressed in transfected cells; host or cells: HEK293T
T4 sequence (P03999 1-345): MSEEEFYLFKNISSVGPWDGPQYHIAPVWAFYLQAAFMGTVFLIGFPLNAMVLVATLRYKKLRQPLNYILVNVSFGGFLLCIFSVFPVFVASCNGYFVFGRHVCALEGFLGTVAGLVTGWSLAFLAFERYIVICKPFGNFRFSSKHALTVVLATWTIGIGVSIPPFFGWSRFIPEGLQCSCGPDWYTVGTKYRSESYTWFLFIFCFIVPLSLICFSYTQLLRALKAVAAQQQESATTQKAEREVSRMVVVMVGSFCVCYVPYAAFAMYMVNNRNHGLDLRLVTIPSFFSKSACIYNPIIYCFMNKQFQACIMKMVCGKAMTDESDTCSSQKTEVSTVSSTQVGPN
Description: as §4

Compound	activation of OPN3, fold-change from baseline luciferase signal vs. log concentration of tastant [1]	activation of calcium dye OPN3 detection elements [2]	aversion to the bitter flavor (lick ratio), OPN3 knockout mice compared to wild type mice [3]	aversive response to the bitter flavor (lick ratio), TRPM5 knockout mice [4]	activation of OPN1SW, fold-change from baseline luciferase signal vs. log concentration of tastant [5]	activation of calcium dye OPN1SW detection elements [6]
C[C@@H]1O[C@@H](O[C@H]2[C@H](Oc3cc(O)c4c(c3)O[C@H](c3ccc(O)cc3)CC4=O)O[C@H](CO)[C@@H](O)[C@@H]2O)[C@H](O)[C@H](O)[C@H]1O [naringin]	activation of OPN3; also recorded: activated; also recorded: potent activator of OPN3	significantly activated in a concentration dependent manner	reduced aversion	lost the aversive response	–	–
CC1(C)O[C@H]2CC(=O)OC[C@]23[C@H]2CC[C@@]4(C)[C@H](c5ccoc5)OC(=O)[C@H]5O[C@]54[C@]2(C)C(=O)C[C@@H]13 [limonin]	–	–	–	–	activation of OPN1SW; also recorded: activated	significantly activated in a concentration dependent manner
